Reference: patent EP0326329B1, “Quinazoline derivatives useful as insecticides” (Dow AgroSciences LLC, priority 1988, dated 1989)

How the values were obtained:
Type in all cases: in vivo
[1] = test system: Botrytis cinerea (gray mold); experiment: Greenhouse Test 1, foliar spray fungicide screen (GRAY MOLD), host grape berries; details: disease control rating, 400 ppm (+++ at 100 ppm)
[2] = test system: melon aphids (Aphis gossypii Glover); experiment: Mite/insect screen, sprayed squash cotyledons (MA); details: percent mortality; for mortality at 200 ppm / mortality at 400 ppm: Aphis gossypii, read-out: MA RESULTS %; for mortality at 400 ppm: spray rate 400 ppm
Outline: (§1)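 Water-diluted formulations of each compound (acetone/alcohol 50:50 with 23 g/L and 13 g/L emulsifier blends) are sprayed over both leaf faces to runoff. After a standard exposure period, percent kill and phytotoxicity are recorded.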

[3] = test system: Erysiphe graminis tritici (powdery mildew); experiment: Greenhouse Test 1, foliar spray fungicide screen (POWD MDEW), host wheat; details: disease control rating, 400 ppm (+++ at 100 ppm)
[4] = test system: Pyricularia oryzae (rice blast); details: disease control rating, foliar spray, host rice; 400 ppm (+++ at 100 ppm)
[5] = test system: southern armyworm (Spodopetra eridania Cramer); experiment: Mite/insect screen, sprayed squash leaves (SAW); details: percent mortality; for mortality at 200 ppm / mortality at 400 ppm: Spodoptera eridania, read-out: SAW RESULTS %; for mortality at 400 ppm: spray rate 400 ppm
Outline: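 Percent mortality and phytotoxicity are the read-outs, assessed after standard exposure periods. Test solutions, made in 50:50 acetone/alcohol with two sulfonate/nonionic emulsifier blends and diluted in water, are sprayed to runoff on both leaf surfaces, which then dry for one hour.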

[6] = test system: Southern corn rootworm (Diabrotica undecimpuctata howardi Barber); experiment: Mite/insect screen, soil treatment (CRW); details: percent mortality, soil treatment; for mortality at 12 ppm / mortality at 24 ppm: Diabrotica, read-out: CRW RESULTS %; for mortality at 24 ppm: CRW rate 24.00 ppm
Outline: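 Compounds dissolved in acetone/alcohol (50:50) with Toximul R/S emulsifiers, diluted with water. Soil (15 g, with presoaked corn seed) treated with 1 mL test solution, dried 6–12 h, then five 2–3 instar larvae added; held at 23°C. Percent mortality and phytotoxicity scored after standard exposure periods.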

[7] = test system: Twospotted spider mites (Tetranychus urticae Koch); experiment: Mite/insect screen, sprayed squash cotyledons (SM); details: percent mortality; for mortality at 200 ppm / mortality at 400 ppm: Tetranychus urticae, read-out: SM RESULTS %; for mortality at 400 ppm: spray rate 400 ppm
Outline: as §1

[8] = test system: Puccinia recondita tritici (leaf rust); experiment: Greenhouse Test 1, foliar spray fungicide screen (LEAF RUST), host wheat; details: disease control rating, 400 ppm (+++ at 100 ppm)
[9] = test system: Pseudoperonospora cubensis (downy mildew); experiment: Greenhouse Test 1, foliar spray fungicide screen (DOWN MDEW), host squash; details: disease control rating, 400 ppm (+++ at 100 ppm)

Row | Structure (SMILES) | GRAY MOLD [1] | mortality at 200 ppm ([2]; spray rate 200 ppm) | mortality at 400 ppm [2] | POWD MDEW [3] | RICE BLAST [4] | mortality at 200 ppm ([5]; spray rate 200 ppm) | mortality at 400 ppm [5] | mortality at 12 ppm ([6]; CRW rate 12.00 ppm) | mortality at 24 ppm [6] | mortality at 200 ppm ([7]; spray rate 200 ppm) | mortality at 400 ppm [7] | LEAF RUST [8] | DOWN MDEW [9] | MA RESULTS % ([2]; spray rate 200 ppm) | SAW RESULTS % ([5]; spray rate 200 ppm) | CRW RESULTS % ([6]; CRW rate 12.00 ppm) | SM RESULTS % ([7]; spray rate 200 ppm)
1 | c1ccc2c(CCOc3ncnc4ccccc34)cccc2c1 [Example 91, 4-[2-(1-naphthyl)ethoxy]quinazoline] | - (- = 0-19% control at 400 ppm) | 0% | 0% | + (+ = 20-89% control at 400 ppm) | ++ (++ = 90-100% control at 400 ppm) | 0% | 0% | 0% | 0% | 0% | 0% | + (+ = 20-89% control at 400 ppm) | ++ (++ = 90-100% control at 400 ppm) |  |  |  | 
2 | Cc1cc(C)c(CCOc2ncnc3ccccc23)c(C)c1 [Example 43, 4-[2-(2,4,6-trimethylphenyl)ethoxy]quinazoline] | - (- = 0-19% control at 400 ppm) |  | 0% | ++ (++ = 90-100% control at 400 ppm) | ++ (++ = 90-100% control at 400 ppm) |  | 0% |  | 0% |  | 0% | ++ (++ = 90-100% control at 400 ppm) | ++ (++ = 90-100% control at 400 ppm) |  |  |  | 
3 | COc1cc(CCOc2ncnc3ccccc23)ccc1O [Example 147] | - (- = 0-19% control at 400 ppm) | 50% | 0% | +++ (+++ = 90-100% control at 100 ppm) | - (- = 0-19% control at 400 ppm) | 0% | 0% | 0% | 0% | 0% | 0% | +++ (+++ = 90-100% control at 100 ppm) | +++ (+++ = 90-100% control at 100 ppm) |  |  |  | 
4 | Oc1ccccc1CCOc1ncnc2ccccc12 [Example 114, 4-[2-(2-hydroxyphenyl)ethoxy]quinazoline] | - (- = 0-19% control at 400 ppm) | 60% | 0% | - (- = 0-19% control at 400 ppm) | - (- = 0-19% control at 400 ppm) | 0% | 0% | 0% | 0% | 0% | 0% | + (+ = 20-89% control at 400 ppm) | + (+ = 20-89% control at 400 ppm) |  |  |  | 
5 | CC(Cc1ccccc1)Oc1ncnc2ccccc12 (centres unmarked) [Example 18, 4-(1-methyl-2-phenylethoxy)quinazoline] | - (- = 0-19% control at 400 ppm) |  | 0% | ++ (++ = 90-100% control at 400 ppm) | + (+ = 20-89% control at 400 ppm) |  | 0% |  | 100% |  | 0% | + (+ = 20-89% control at 400 ppm) | ++ (++ = 90-100% control at 400 ppm) |  |  |  | 
6 | CC(C)c1ccc(CCCOc2ncnc3c(F)cccc23)cc1 [Example 152, 8-fluoro-4-[3-[4-(1-methylethyl)phenyl]propoxy]quinazoline] | - (- = 0-19% control at 400 ppm) | 40% | 80% | +++ (+++ = 90-100% control at 100 ppm) | + (+ = 20-89% control at 400 ppm) | 0% | 0% | 0% | 0% | 90% | 60% | + (+ = 20-89% control at 400 ppm) | + (+ = 20-89% control at 400 ppm) |  |  |  | 
7 | Cc1ccccc1CCOc1ncnc2ccccc12 [Example 103, 4-[2-(2-methylphenyl)ethoxy]quinazoline] | - (- = 0-19% control at 400 ppm) |  | 0% | + (+ = 20-89% control at 400 ppm) | + (+ = 20-89% control at 400 ppm) |  | 0% |  | 0% |  | 0% | +++ (+++ = 90-100% control at 100 ppm) | + (+ = 20-89% control at 400 ppm) |  |  |  | 
8 | Fc1cccc2c(NCC(c3ccccc3)c3ccccc3)ncnc12 [Example 61, N-(2,2-diphenylethyl)-8-fluoro-4-quinazolinamine] | - (- = 0-19% control at 400 ppm) | 0% | 0% | - (- = 0-19% control at 400 ppm) | - (- = 0-19% control at 400 ppm) | 0% | 0% | 0% | 0% | 0% | 0% | - (- = 0-19% control at 400 ppm) | - (- = 0-19% control at 400 ppm) | 0% | 0% | 0% | 0%
9 | Clc1ccc2c(NCCc3cccc(Oc4ccccc4)c3)ncnc2c1 [Example 171, 7-chloro-N-[2-(3-phenoxyphenyl)ethyl]-4-quinazolinamine] | - (- = 0-19% control at 400 ppm) | 80% | 80% | +++ (+++ = 90-100% control at 100 ppm) | +++ (+++ = 90-100% control at 100 ppm) | 0% | 0% | 0% | 0% | 20% | 40% | +++ (+++ = 90-100% control at 100 ppm) | +++ (+++ = 90-100% control at 100 ppm) |  |  |  | 
10 | N#Cc1ccc(CCOc2ncnc3ccccc23)cc1 [Example 183, 4-[2-[(4-quinazolinyl)oxy]ethyl]benzonitrile] | - (- = 0-19% control at 400 ppm) | 0% | 0% | + (+ = 20-89% control at 400 ppm) | ++ (++ = 90-100% control at 400 ppm) | 0% | 0% | 0% | 80% | 0% | 0% | +++ (+++ = 90-100% control at 100 ppm) | + (+ = 20-89% control at 400 ppm) |  |  |  | 
11 | Fc1cccc2c(OCCC3CCCCC3)ncnc12 [Example 70, 4-(2-cyclohexylethoxy)-8-fluoroquinazoline] | - (- = 0-19% control at 400 ppm) |  | 0% | + (+ = 20-89% control at 400 ppm) | +++ (+++ = 90-100% control at 100 ppm) |  | 0% |  | 0% |  | 80% | + (+ = 20-89% control at 400 ppm) | + (+ = 20-89% control at 400 ppm) |  |  |  | 
